The results in this text go back to patent US20210205192A1, “ANTIMICROBIAL MIXTURE CONTAINING 4-(3-ETHOXY-4-HYDROXYPHENYL)BUTAN-2-ONE AND A DIOL, AND COSMETIC COMPOSITION CONTAINING SAME” (L'OREAL, priority 2017, published 2021).

Experiment [1] relates to Candida albicans ATCC 10231. Description: Synergistic antimicrobial activity as MIC (96-well microplate, optical density at 620 nm), Candida albicans. It is filed as cell-based. From the text: (§1) FIC Index=(MICa with B/MICa)+(MICb with A/MICb)
(§2) with: • MICa with B: minimum concentration of product A in the combination A+B which makes it possible to obtain an inhibitory effect • MICb with A: minimum concentration of product B in the combination A+B which makes it possible to obtain an inhibitory effect. • MICa: minimum inhibitory concentration of product A alone. • MICb: minimum inhibitory concentration of product B alone.
(§3) As regards the combinations tested, MICa with b and MICb with a are the respective concentrations of A and of B in the combinations which make it possible to obtain a microbial growth percentage of less than or equal to 20%.
(§4) When the FIC index value is less than or equal to 1, it is considered that the combination of test compounds has a synergistic effect.
The microbial strain Candida albicans ATCC 10231 and a double-concentration Sabouraud broth liquid culture medium were used.
(§5) A 96-well microplate and an […] of 32.5° C. are used.
(§6) The incubation time of the microplate is: • from 18 to 24 h under aerobic conditions for Candida albicans ATCC 10231; • from 24 to 30 h under aerobic conditions for Aspergillus niger ATCC 6275.
(§7) A 10% (weight/volume) stock solution was prepared by mixing 1 g of compound in 9 ml of aqueous 1% o agar solution. Successive dilutions were made with the 1% o agar solution. • Test of compounds A and B alone
(§8) 50 μl of each of the daughter solutions obtained containing compound A or B are added to the microplate wells. 100 μl of Sabouraud liquid nutrient broth inoculated with the strain Aspergillus niger and 50 μl of aqueous 1% o agar solution are also added thereto. • Test of compounds A and B as a mixture
(§9) 50 μl of each of the daughter solutions obtained containing compound A and 50 μl of each of the daughter solutions obtained containing compound B are added to the microplate wells. 100 μl of Sabouraud liquid nutrient broth inoculated at double concentration with the strain Aspergillus niger are also added thereto.
The test as described above (tests, absorbance control and growth control) was performed again to test the combination A and B on the Candida albicans strain.

In experiment [2] the test system is Aspergillus niger ATCC 6275. The experiment is described as follows: Synergistic antimicrobial activity as MIC (96-well microplate, optical density at 620 nm), Aspergillus niger. It is filed as cell-based.
Excerpt: as §1, §2, §3, §4
The microbial strain Aspergillus niger ATCC 6275, and a double-concentration Sabouraud broth liquid culture medium supplemented with polyoxyethylenated (20 OE) sorbitan monopalmitate (Tween 40 from Croda) and Phytagel© BioReagent were used (i.e. a mixture of 5 g of Phytagel+0.6 g Tween 40+60 g of Sabouraud broth).
as §5, §6, §7, §8, §9
A positive microbial growth control was also prepared. The positive microbial growth control corresponds to a mixture of 100 μl of aqueous 1% o agar solution with 100 μl of Sabouraud liquid nutrient broth inoculated at double concentration with the strain Aspergillus niger in the absence of compounds A and B.
An absorbance control was performed in parallel on compounds A and B alone. This control corresponds to 100 μl of double concentration sterile Sabouraud liquid nutrient broth+100 μl of double concentration compound A or B.
In the three cases (absorbance control, growth control and test), the final volume present in each of the microplate wells is 200 μl.
In the two cases (test and control), the inoculum represents the concentration of the Aspergillus niger strain present in the final volume of the wells (200 μl) and is between 2 and 6×10^5 cfu/ml of Aspergillus niger.

Where [3] appears, read: Aspergillus niger, growth <= 20%.

In the case of `CCOc1cc(CCC(C)=O)ccc1O` [A, 4-(3-ethoxy-4-hydroxyphenyl)butan-2-one], the microbial growth percentage is 81% in experiment [1] (0.025 A, 0 B2 (weight %)); 78% in experiment [1] (0.025 A, 0 B3 (weight %)); 60% in experiment [1] (0.05 A, 0 B2 (weight %)); 61% in experiment [1] (0.05 A, 0 B3 (weight %)); 27% in experiment [1] (0.1 A, 0 B2 (weight %)); 25% in experiment [1] (0.1 A, 0 B3 (weight %)). For the same compound, the microbial growth percentage in experiment [1] (0.2 A, 0 B2 (weight %)) is 4%; in experiment [1] (0.2 A, 0 B3 (weight %)) it was 3%; in experiment [2] (0.025 A, 0 B1 (weight %)), 42%; in experiment [2] (0.025 A, 0 B3 (weight %)), 39%; in experiment [2] (0.05 A, 0 B1 (weight %)) it was 25%; in experiment [2] (0.05 A, 0 B3 (weight %)), 32%. Further, the microbial growth percentage came to 10% in experiment [2] (0.1 A, 0 B1 (weight %)) and 12% in experiment [2] (0.1 A, 0 B3 (weight %)). For the same compound, the “% MIC A” value in experiment [1] (A alone, Candida albicans, test series with B2, growth <= 20%) is 0.2%. Further, the “% MIC of A alone” value amounted to 0.2% in experiment [1] (Candida albicans, test series with B3, growth <= 20%); 0.1% in experiment [2] (Aspergillus niger, test series with B1, growth <= 20%); 0.1% in experiment [2] (Aspergillus niger, test series with B3, growth <= 20%).
As for `OCCCO` [B1, 1,3-propanediol], the microbial growth percentage in experiment [2] (0 A, 0.125 B1 (weight %)) stood at 77%; in experiment [2] (0 A, 0.25 B1 (weight %)), 62%; in experiment [2] (0 A, 0.5 B1 (weight %)), 50%; in experiment [2] (0 A, 1 B1 (weight %)), 36%; in experiment [2] (0 A, 2 B1 (weight %)) it was 11%. The “% MIC of B1 alone” value in experiment [2] (setting [3]) is given as 2%.
As for `CCCCCCC(O)CO` (centres unmarked) [B2, 1,2-octanediol], the microbial growth percentage in experiment [1] (0 A, 0.025 B2 (weight %)) was 79%; in experiment [1] (0 A, 0.05 B2 (weight %)), 60%; in experiment [1] (0 A, 0.1 B2 (weight %)) it was 23%; in experiment [1] (0 A, 0.2 B2 (weight %)), 0%. For the same compound, the “MIC B2” value in experiment [1] (B2 alone, Candida albicans, growth <= 20%) is 0.2%.
For the compound `CCCCCCCCC(O)CO` (centres unmarked) [B3, 1,2-decanediol], the microbial growth percentage is listed as 45% in experiment [1] (0 A, 0.0125 B3 (weight %)); 3% in experiment [1] (0 A, 0.025 B3 (weight %)); 42% in experiment [2] (0 A, 0.0125 B3 (weight %)); 10% in experiment [2] (0 A, 0.025 B3 (weight %)). For the same compound, the “% MIC of B3 alone” value in experiment [1] (Candida albicans, growth <= 20%) came out at 0.025%; in experiment [2] (setting [3]) it was 0.025%.
